Several values for one entry are separate records, joined by “and”; a condition that tells them apart may be missing. Identical values can stand only once.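 Tested at 5 concentrations; 48 h exposure; 96-well plates; endpoints linearly interpolated, else capped at highest concentration. GI50 is the concentration that inhibits growth by half. TGI is the concentration that stops growth completely.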
Columns and labels:
Test in all cases: NCI-60 cell line screen, 48 h
786-0 renal = system: 786-0 renal
A498 renal = system: A498 renal
COLO 205 colon = system: COLO 205 colon
MCF7 breast = system: MCF7 breast
NCI/ADR-RES ovarian = system: NCI/ADR-RES ovarian
OVCAR-5 ovarian = system: OVCAR-5 ovarian
OVCAR-8 ovarian = system: OVCAR-8 ovarian
RXF 393 renal = system: RXF 393 renal
SF-539 CNS = system: SF-539 CNS
SNB-75 CNS = system: SNB-75 CNS

Structure (SMILES)	TGI (786-0 renal)	TGI (A498 renal)	TGI (COLO 205 colon)	TGI (MCF7 breast)	TGI (NCI/ADR-RES ovarian)	TGI (OVCAR-5 ovarian)	TGI (OVCAR-8 ovarian)	TGI (RXF 393 renal)	TGI (SF-539 CNS)	TGI (SNB-75 CNS)	GI50 (COLO 205 colon)	GI50 (MCF7 breast)	GI50 (NCI/ADR-RES ovarian)	GI50 (OVCAR-5 ovarian)	GI50 (OVCAR-8 ovarian)	GI50 (RXF 393 renal)	GI50 (SF-539 CNS)
N/C(=N\S(=O)(=O)c1ccc(S(=O)(=O)c2ccccc2)s1)Nc1ccc(Cl)cc1	41.5 µM	34.7 µM	39.4 µM	35.6 µM	45.1 µM	97.6 µM	45.1 µM	> 100 µM	84.3 µM	> 100 µM							
C[C@H](CCC(=O)NCCS(=O)(=O)O)[C@H]1CC[C@H]2[C@@H]3CC[C@@H]4C[C@H](O)CC[C@]4(C)[C@H]3CC[C@]12C	> 100 µM	> 100 µM	> 100 µM	> 100 µM	> 100 µM	> 100 µM	> 100 µM	> 100 µM	> 100 µM	> 100 µM							
Nn1c(COc2cccc(OCc3n[nH]c(=S)n3N)c2)n[nH]c1=S	> 100 µM	> 100 µM	> 100 µM	> 100 µM	> 100 µM	> 100 µM	> 100 µM	> 100 µM	> 100 µM	> 100 µM							
COC(=O)NCCc1[nH]nc2c1C(=O)C=C(N1CCOCC1)C2=O	> 100 µM	> 100 µM	> 100 µM	> 100 µM	> 100 µM	> 100 µM	> 100 µM	> 100 µM	> 100 µM	> 100 µM							
CCSc1sc(=Nc2ccc(N=c3sc(C)c(SC)s3)cc2)sc1-c1ccc(C)cc1	> 100 µM	> 100 µM	> 100 µM	> 100 µM	> 100 µM	> 100 µM	> 100 µM	> 100 µM	> 100 µM	> 100 µM							
CC(=O)N=C1N(/C=C2\C(=O)Oc3ccccc3C2=O)C(=O)/C(=C/c2ccc(OC(C)=O)cc2)N1C	> 100 µM	> 100 µM	> 100 µM	> 100 µM	> 100 µM	> 100 µM	> 100 µM	> 100 µM	> 100 µM	> 100 µM							
CCCCC(C#N)(OP1(=O)OC(c2ccccc2)C(C)N1C)c1ccccc1 (stereo unspecified)	31.8 µM	33.6 µM	35.4 µM	39 µM	52 µM	32.2 µM	38.8 µM	33.1 µM	31.2 µM	37.3 µM							
CN(C)CCNC(=O)c1cccc2c(NCCN(C)C)c3ccccc3nc12	6.65 µM	4.74 µM	7.23 µM	12.8 µM	25.7 µM	11.1 µM	12.4 µM	14.2 µM	11.3 µM	11.1 µM							
O=C1CCC2(CC1CC(Sc1ccccc1)Sc1ccccc1)OCCO2 (stereo unspecified)	> 100 µM	> 100 µM	66.1 µM	> 100 µM	> 100 µM	> 100 µM	> 100 µM	> 100 µM	> 100 µM	> 100 µM							
COC(=O)CCC(=O)NC1=C(NCc2ccccc2)C(=O)c2ccccc2C1=O	> 100 µM	> 100 µM	76.1 µM	58.2 µM	> 100 µM	98.7 µM	> 100 µM	> 100 µM	43.8 µM	> 100 µM							
S=C(NC1=NCC(CN2CCN(c3ccccc3)CC2)O1)Nc1ccccc1 (stereo unspecified)	> 100 µM	> 100 µM	> 100 µM	> 100 µM	> 100 µM	> 100 µM	> 100 µM	> 100 µM	> 100 µM	> 100 µM							
Nc1nc(Cl)c(N)c(NCC2(CO)CC(OCc3ccccc3)C2)n1 (stereo unspecified)	> 100 µM	> 100 µM	> 100 µM	> 100 µM	> 100 µM	> 100 µM	> 100 µM	> 100 µM	> 100 µM	> 100 µM							
COC(=O)CCC(=O)NC1=C(Nc2ccc(OC)cc2)C(=O)c2ccccc2C1=O	76.2 µM	33.6 µM	28 µM	18.8 µM	60.3 µM	31 µM	75.6 µM	67 µM	27.9 µM	21.2 µM							
[N-]=[N+]=C1N=CN=C1c1ncn[nH]1	> 100 µM	> 100 µM	> 100 µM	> 100 µM	> 100 µM		> 100 µM	> 100 µM	52.2 µM	> 100 µM							
COc1ccc2nc3c([N+](=O)[O-])ccc4c3c(c2c1)NCCN4CCO	1.46 µM	2 µM	1.74 µM	3.19 µM	4.41 µM	2.95 µM	2.01 µM	1.78 µM	1.56 µM	1.88 µM							
COC(=O)C1Cc2c(OC)ccc(OC)c2CC(C(=O)OC)C1=O (stereo unspecified)	> 100 µM	> 100 µM	> 100 µM	> 100 µM	> 100 µM	> 100 µM	> 100 µM	> 100 µM	> 100 µM	> 100 µM							
N#CCc1n[nH]c(Cc2ccccc2)n1	> 100 µM	> 100 µM	> 100 µM	> 100 µM	> 100 µM	> 100 µM	> 100 µM	> 100 µM	> 100 µM	> 100 µM							

Structure (SMILES)	TGI (786-0 renal)	TGI (A498 renal)	TGI (COLO 205 colon)	TGI (MCF7 breast)	TGI (NCI/ADR-RES ovarian)	TGI (OVCAR-5 ovarian)	TGI (OVCAR-8 ovarian)	TGI (RXF 393 renal)	TGI (SF-539 CNS)	TGI (SNB-75 CNS)	GI50 (COLO 205 colon)	GI50 (MCF7 breast)	GI50 (NCI/ADR-RES ovarian)	GI50 (OVCAR-5 ovarian)	GI50 (OVCAR-8 ovarian)	GI50 (RXF 393 renal)	GI50 (SF-539 CNS)
CC1(C)N=C(C(N)=O)c2ncn(N)c2N1	> 100 µM	> 100 µM	> 100 µM	> 100 µM	> 100 µM	> 100 µM	> 100 µM	> 100 µM	> 100 µM	> 100 µM							
O=C1NC(SSC2=NNC3(C(=O)N2)c2ccccc2-c2ccccc23)=NNC12c1ccccc1-c1ccccc12	> 10 µM	> 10 µM	> 10 µM	> 10 µM	> 10 µM	> 10 µM	> 10 µM	> 10 µM	> 10 µM	> 10 µM							
N[C@H](C(=O)O)[C@H]1ON=C(Cl)[C@@H]1O		137 µM	> 550 µM	> 550 µM	> 469 µM	> 166 µM	> 550 µM	> 93.8 µM and 232 µM	> 362 µM	> 364 µM	3.27 µM	0.374 µM	15.3 µM	13.8 µM	12.2 µM	7.92 µM	8.83 µM
Cc1ccc(N2Cc3c(ccc4ccccc34)OP2(=O)Oc2ccc(Cl)c(C)c2)cc1 (stereo unspecified)		> 100 µM	> 100 µM	> 100 µM	> 100 µM	> 100 µM	> 100 µM	> 100 µM	> 100 µM	> 100 µM							
CCCSc1ccc2[nH]c(N3C(=O)/C(=C/c4ccco4)N=C3c3ccccc3)cc2c1	> 50 µM	> 50 µM	32.8 µM	> 50 µM	> 50 µM	> 50 µM	> 50 µM	> 50 µM	25 µM	> 50 µM							
CC(NC(=O)C(C)NC(=O)C(N)CCP(C)(=O)O)C(=O)O (stereo unspecified)		> 100 µM	> 100 µM	> 100 µM	> 100 µM	> 100 µM	> 100 µM	> 100 µM	> 100 µM	> 100 µM							
COc1ccc2c(CCN)c(C(=O)O)[nH]c2c1	> 100 µM	> 100 µM	> 100 µM	> 100 µM	> 100 µM	> 100 µM	> 100 µM	> 100 µM	> 100 µM	> 100 µM							
CCCCCCCCOC1C(O)C(O)C(O)C(O)C12CO2 (stereo unspecified)	> 100 µM	> 100 µM	> 100 µM	> 100 µM	> 100 µM		> 100 µM	> 100 µM	> 100 µM	> 100 µM							
COC(=O)[C@@H]1[C@@H](c2cccc(Cl)c2)[C@H](C(=O)OC)C2(C[C@@]1(C)O)NCCS2 (stereo partly specified)	> 100 µM	> 100 µM	> 100 µM	> 100 µM	> 100 µM	> 100 µM	> 100 µM	> 100 µM	> 100 µM	> 100 µM							
Cn1c(=O)c(C(=O)Nc2nc(C34CC5CC(CC(C5)C3)C4)cs2)c(O)c2ccccc21	> 100 µM	> 100 µM	> 100 µM	> 100 µM	70.2 µM	> 100 µM	> 100 µM	65 µM	> 100 µM	> 100 µM							
NC(N)=N/N=C/c1nc2n(c1[N+](=O)[O-])CCS2	> 100 µM	> 100 µM	27.4 µM	> 100 µM	> 100 µM	> 100 µM	> 100 µM	65.3 µM	> 100 µM	60.2 µM							
O=S(=O)(CCBr)CCBr		14.8 µM	12.7 µM	18.3 µM	5.02 µM	26.7 µM	5.68 µM	5.88 µM	18.6 µM	25.5 µM							
COC(=O)C(Cc1c(C2Nc3ccccc3C2CC(NC(=O)CNC(C)=O)C(=O)OC)[nH]c2ccccc12)NC(=O)CNC(C)=O (stereo unspecified)	> 100 µM	> 100 µM	> 100 µM	> 100 µM	> 100 µM	> 100 µM	> 100 µM	> 100 µM	> 100 µM	> 100 µM							
CCOC(=O)C1=CNC(C(=O)OCC)C1c1cccn1-c1ccc(Cl)cc1[N+](=O)[O-] (stereo unspecified)	45.9 µM	> 100 µM	> 100 µM	60.6 µM	62.5 µM	60.3 µM	90.6 µM	36.7 µM	30.8 µM	51.4 µM							
CCOC(=O)c1ccc(Nc2c3c(nc4ccccc24)CCCC3)cc1	> 100 µM	> 92.2 µM	> 100 µM	> 100 µM	> 100 µM	> 100 µM	> 100 µM	> 100 µM	> 100 µM	> 54.8 µM							
COc1ccc2nc3ccc(OC)cc3c(SCCO)c2c1	> 60 µM	> 100 µM	> 64.3 µM	> 62.3 µM	> 80.3 µM	> 100 µM	> 55.4 µM	> 100 µM	> 72.4 µM	81.8 µM							
COC(=O)/C=C\n1c(C)cc(=O)[nH]c1=O	> 100 µM	> 100 µM	> 100 µM	89 µM	> 100 µM	> 100 µM	> 100 µM	> 100 µM	> 100 µM	> 100 µM							

Reference: PubChem BioAssay (NCI)
